Assays:
[1] = tested on: fibroblast cultures from human PD plaque; assay: cGMP and cAMP enzyme immunoassays in fibroblast cultures from human PD plaque; assay type: cell-based; conditions: for cGMP levels as % of control levels: 3-day incubation
Description: (§1) Primary human cell cultures: Human fibroblast primary cultures were obtained from fragments of PD plaque or TA essentially according to Smith and Liu (2002), and their purity was established by immunohistochemistry, as detailed below. New primary cultures were obtained from fragments of PD plaque or TA that were washed in Hanks solution, minced in a fibroblast growth medium (FGM) (BioWhittaker Inc., Walkersville, Md.) and 20% fetal bovine serum (FBS), and plated onto a 25 cm^2 culture flask per specimen (Vernet et al., 2002). Fragments were left undisturbed until attachment for about 1 week. Once the monolayer started to develop, the fragment was removed. Medium with 10% FBS was changed once a week and when cells achieved approximately 80% confluence (3-4 weeks) they were trypsinized and split onto 10 cm plates. Cells were allowed to grow again to 80% confluence, with medium changed twice a week. The cells collected from this passage were considered as passage 1. Successive passages were performed at 1/3 split ratio, and studies were carried out on cells from passages 3 onwards. Studies were performed with PD cells from the 4th to the 10th passages. Cells were incubated on: a) 75 cm^2 flasks for RNA isolation; b) 6-well plates for protein isolation; and c) 8-well removable chambers for cytochemistry and immunocytochemistry. Treatments with different additions were initiated 24 hours after plating and continued for different periods.
The presence of PDEs in the PD fibroblasts in culture was confirmed by the ability of increasing concentrations of sildenafil and pentoxifylline to raise the basal cGMP and cAMP levels in triplicate wells, either in the absence or the presence of the NO donor, SNAP (S-nitroso-N-acetyl penicillamine) (Alexis Biochemicals, San Diego, Calif.) added daily at 100 μM, as measured by cGMP and cAMP EIA (enzyme immuno absorption) kits (Cayman Chemical, Ann Arbor, Mich.). Experiments were performed in duplicate. Values were expressed as pmoles cGMP or cAMP/mg protein. To normalize for differences between experiments, the changes in cGMP and cAMP levels exerted by sildenafil and pentoxifylline were expressed as % of their respective control values in the absence of the PDE inhibitors.

[2] = tested on: fibroblast cultures from human PD plaque; assay: TUNEL apoptosis in fibroblast cultures from human PD plaque
Experimental: Cells incubated in 8-well chamber slides were allowed to grow to 50-60% confluence. At this point, cells received in duplicate sildenafil, pentoxifylline, or 8-Br cGMP at the concentrations indicated, and were allowed to propagate for 3 days without changing medium. In certain cases SNAP was added and replaced daily after changing the medium (Vernet et al., 2002). All studies were done in duplicate or triplicate.
For cell cultures, the cells were fixed in 4% formaldehyde for 30 min on ice, and post-fixed with ethanol-acetic acid 2/1 for 5 min at −20 C. Then the above procedure was applied, except that the proteinase K was omitted.
The number of positive cells was counted in a computerized grid against the total number of cells determined by counterstaining, and results were expressed as a percentage of positive cells over total cells. […] The apoptotic index (rate of programmed cell death) was calculated as the percentage of apoptotic cells within the total number of cells in a given area (non-apoptotic nuclei plus apoptotic cells). In all cases, five non-overlapping fields were screened per tissue section or per well. Three sections per tissue specimen from groups of five animals, or two wells per experimental point in cell incubations, were then used to calculate the means+/−SEM.

[3] = tested on: fibroblast cultures from human PD plaque; assay: Collagen I/III and ASMA immunocytochemistry with QIA in fibroblast cultures from human PD plaque; assay type: cell-based; conditions: for number of ASMA positive cells (myofibroblasts): control 37%; for synthesis of collagen III: PDE inhibitors
Description: as §1
In the case of cell cultures, at completion of incubations, slides were removed from the chambers and cells were fixed for immunodetection for 20 min in 4% buffered formalin at room temperature for α-smooth muscle actin (ASMA) (as a myofibroblast marker), vimentin (as a general fibroblast marker), and in certain cases for PDE5 and PDE4, or in ethanol at −20 C for collagen I and III (Vernet et al., 2002). The cells were quenched, blocked with normal goat serum and incubated with monoclonal primary antibodies for ASMA and vimentin (Sigma Immunohistology Kits, Sigma Chemical Co, St. Louis, Mo.), collagen I, and collagen III (1:40) (Chemicon International, Temecula, Calif.), overnight at 4° C. (Vernet et al., 2002; Ferrini et al., 2002). Processing was according with the manufacturer's instructions for ASMA, vimentin and collagen, consisting in the respective monoclonal antibodies and an anti-mouse biotinylated secondary antibody, followed by avidin-biotinylated HRP and the 3-amino-9-ethylcarbazol (AEC) chromogen. For PDE5A, the antibodies were as described above. Negative controls omitted the first antibodies or were replaced by IgG isotype at the same concentration of the first antibodies. Counterstaining was done with Mayer's hematoxylin. All the slides were mounted with Aqua Mount (Lerner, Pittsburgh, Pa.). For PDE4, the anti PDE4A and PDE4B affinity purified IgGs used for western blot was employed, and in addition the anti-PDE4A4 and anti-PDE4D (detecting variants 1-5) from the same source (FabGennix Inc.) were used.
(§2) The quantitation of the staining obtained by either histochemical or immunohisto/cytochemical techniques was performed by computerized densitometry using the ImagePro 4.01 program (Media Cybernetics, Silver Spring, Md.), coupled to an Olympus BHS microscope equipped with a Spot RT digital camera or VCC video camera (Wang et al., 2001; Ferrini et al., 2001a, 2001b; Davila et al., 2003b).

[4] = tested on: TGF-β1-induced fibrotic plaque in the rat tunica albuginea; assay: TGF-β1 rat model of Peyronie's disease, plaque and collagen deposition by Masson staining with QIA; assay type: in vivo; conditions: for plaque size (Masson staining, collagen fiber/cell-lacunae area ratio, width of the tunica): oral in drinking water, 100 mg/l, 45 days following TGF-β1 injection
Experimental: (§3) TGF-β1 rat model. Male Fisher 344 rats, 9-11 month old purchased from the NIH/NIA colony (Harlan Sprague-Dawley, Inc., San Diego, Calif.) and maintained under controlled temperature and lighting, were anesthetized and injected in the penile TA at the middle of the penis with either vehicle only (saline, group 1) or 0.5 μg recombinant human TGF-β1 (Biotech Diagnostic, Laguna Niguel, Calif., groups 2-5) as disclosed (Ferrini et al., 2002; Vernet et al., 2002). After the injection, groups 1 and 2 were given drinking water while the other groups received water with L-arginine (2.25 g/kg/day, group 3) (Moody et al., 1997), or sildenafil (10 mg/kg/day, group 4) or pentoxifylline (10 mg/kg/day, group 5). Forty-five days later, or as indicated, animals were sacrificed and perfused through the left ventricle with saline followed by 4% formalin ((Ferrini et al., 2002; Vernet et al., 2002). After the penises were excised, the penile skin was denuded by removing the glans and adhering non-crural tissue. The penile shaft was separated from the crura and 2-3 mm transverse slices were cut around the site of the saline or TGF-β1 injection. All tissues were post-fixed overnight in 4% formalin, washed in PBS and stored at 4° C.
In the case of tissue sections, the determinations of the collagen/smooth muscle ratio were carried out with Masson trichrome (Ferrini et al., 2002; Davila et al., 2003b) on adjacent 5 μm paraffin-embedded cross-sections from the human normal tunical or plaque tissues, or from a 2 mm area around the site of injection in the rat saline- and TGF-β1-injected shaft tissues. Other distal sections were obtained along the rat penile shaft.
as §2

[5] = tested on: TGF-β1-induced fibrotic plaque in the rat tunica albuginea; assay: TUNEL apoptosis in the TGF-β1-induced plaque of the rat tunica albuginea; assay type: in vivo; conditions: for apoptotic index in the plaque: oral in drinking water, 100 mg/l, 45 days following TGF-β1 injection
Experimental: as §3

[6] = tested on: normal human TA and PD fibroblast cultures; assay: Fibroblast numbers in normal human TA and PD cultures; assay type: cell-based; conditions: both normal human TA and PD cultures
Description: as §1, with “Treatments with different additions were initiated 24 hours after plating and continued for different periods.” left out

PDE5A3 = PDE5A3 (Homo sapiens, UniProt O76074); conditions: cited from earlier work
[7] = cited from earlier work
[8] = in the presence of SNAP (100 uM), increasing concentrations

SMILES: Nc1nc2c(nc(Br)n2[C@@H]2O[C@@H]3COP(=O)(O)O[C@H]3[C@H]2O)c(=O)[nH]1 [8 Br-cGMP]
- intracellular cGMP levels ([1]; 100 uM, control 0.02): 1.83 nmoles/10^6 cells
- increase of cGMP levels in cell extracts ([1]; 8 Br-cGMP at 10 uM): 6.4 fold
- increase of cGMP levels in cell extracts ([1]; 8 Br-cGMP at 100 μM): 38.7 fold
- apoptosis by TUNEL ([2]; 100 uM, control 7.5+/−0.4): 20.5+/−1.1 cells per field
- increase of apoptosis (apoptotic index, TUNEL, image analysis) ([2]; 3 days, did not achieve statistical significance): 2.3 fold
- reduction in the number of cells expressing collagen I ([3]; 10 μM, 3 days): 30%
- ASMA expression per cell (myofibroblast differentiation) ([3]; 400 μM, 3 days): decreased significantly
- number of cells expressing collagen I ([3]; 400 μM, 3 days, compared with 10 μM): did not induce further decrease
- collagen I expression per cell ([3]; 3 days): reduced only moderately and non-significantly
- relative number of ASMA positive cells ([3]; 3 days): no effect
- collagen I production by the cells ([3]; levels as low as 10 uM): inhibited collagen I production

SMILES: N=C(N)NCCC[C@H](N)C(=O)O [L-arginine]
- size of the TGF-β1-induced plaque (Masson staining, collagen fiber/cell-lacunar area ratio) ([4]; oral L-arginine in drinking water (2.25%), 45 days after TGF-β1 injection): considerable decrease in the size
- apoptotic index (apoptotic cells/total number of cells) in the plaque ([5]; oral L-arginine (2.25%)): no significant difference
- number of apoptotic cells per field in the PD-like plaque ([5]; oral L-arginine (2.25%), vs control animals): increase

SMILES: CC(=O)N[C@H](C(=O)O)C(C)(C)SN=O [SNAP, S-Nitroso-N-acetyl penicillamine]
- increase of cGMP levels in cell extracts ([1]; 100 uM SNAP, 3 days, daily replacement, basal 5.0+/−0.4 pmol/mg protein): 5.0 fold
- cAMP levels ([1]; after 3 days with SNAP, basal 42.6+/−12.7 pmol/mg protein): did not vary significantly
- collagen I synthesis in all the cells ([3]; NO donor in culture): inhibitory action
- myofibroblast differentiation ([3]; NO donor in culture): inhibitory action
- fibroblast numbers [6]: reduced fibroblast numbers

SMILES: CCCc1nn(C)c2c(=O)[nH]c(-c3cc(S(=O)(=O)N4CCN(C)CC4)ccc3OCC)nc12 [sildenafil]
- plaque size (Masson staining, collagen fiber/cell-lacunae area ratio, width of the tunica) [4]: considerable reduction in plaque size
- sensitivity of PDE5A3 to sildenafil compared with PDE5A1 (PDE5A3): twice as sensitive
- cGMP levels ([1]; in the absence of SNAP): did not significantly stimulate
- cGMP levels as % of control levels [1, 8]: increased dose-dependently
- number of ASMA positive cells (myofibroblasts) ([3]; 3 days): about 24%
- synthesis of collagen III ([3]; 3 days): did not decrease, but even increased
- half-life [7]: 4 to 6 h
- apoptotic index in the plaque [5]: intensification of the apoptotic index

SMILES: CC(=O)CCCCn1c(=O)c2c(ncn2C)n(C)c1=O [pentoxifylline]
- plaque size (Masson staining, collagen fiber/cell-lacunae area ratio, width of the tunica) [4]: considerable reduction in plaque size
- cGMP levels as % of control levels [1, 8]: did not increase significantly
- cAMP levels as % of control levels ([1]; in the presence of SNAP (100 uM), increasing concentrations, 3 days): very effective in increasing cAMP levels
- number of ASMA positive cells (myofibroblasts) ([3]; 3 days): about 24%
- synthesis of collagen III ([3]; 3 days): did not decrease, but even increased
- apoptotic index in the plaque [5]: intensification of the apoptotic index, especially for pentoxifylline

From US8133903B2, “Methods of use of inhibitors of phosphodiesterases and modulators of nitric oxide, reactive oxygen species, and metalloproteinases in the treatment of peyronie's disease, arteriosclerosis and other fibrotic diseases” (Los Angeles Biomedical Research Institute at Harbor—UCLA …, priority 2003, dated 2012)
